# According to ChEMBL document CHEMBL1201862, “PubChem BioAssay data set” (2004):
# Activity calls are given as the source filed them.
# Key:
# [1] = target: T1, Sentrin-specific protease 1 (Homo sapiens, UniProt Q9P0U3); assay: potency of human SENP1 inhibitors, dose response, biochemical, kinetic FRET (AID 651697); type: functional; details: read-out: IC50_Mean
# T1 sequence (Q9P0U3 whole entry): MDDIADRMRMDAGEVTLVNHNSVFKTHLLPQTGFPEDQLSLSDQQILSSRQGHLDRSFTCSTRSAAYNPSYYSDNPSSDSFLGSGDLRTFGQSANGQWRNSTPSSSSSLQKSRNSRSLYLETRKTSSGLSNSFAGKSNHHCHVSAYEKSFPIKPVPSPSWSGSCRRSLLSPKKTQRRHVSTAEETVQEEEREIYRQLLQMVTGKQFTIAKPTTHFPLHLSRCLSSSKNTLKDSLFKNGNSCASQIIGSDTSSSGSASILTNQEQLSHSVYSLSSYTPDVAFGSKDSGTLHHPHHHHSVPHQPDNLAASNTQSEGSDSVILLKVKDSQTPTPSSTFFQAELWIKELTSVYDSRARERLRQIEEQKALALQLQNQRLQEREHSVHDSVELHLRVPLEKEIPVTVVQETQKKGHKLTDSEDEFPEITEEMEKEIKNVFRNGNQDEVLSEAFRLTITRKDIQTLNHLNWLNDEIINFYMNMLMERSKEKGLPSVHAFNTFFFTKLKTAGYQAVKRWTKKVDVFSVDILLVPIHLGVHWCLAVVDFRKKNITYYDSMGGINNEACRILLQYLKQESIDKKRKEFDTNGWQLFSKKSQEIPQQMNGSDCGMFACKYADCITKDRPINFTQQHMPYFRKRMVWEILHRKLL
# [2] = target: T1, Sentrin-specific protease 1; assay: Dose response confirmation of small molecule inhibitors of the catalytic domain of the SUMO protease, SENP1 in a FRET assay.; type: functional; details: read-out: IC50_Mean
# Beta-lactamase [3] = target: Beta-lactamase (Salmonella choleraesuis (strain SC-B67), UniProt Q5J463); assay: Epi-absorbance-based counterscreen for selective VIM-2 inhibitors: dose response biochemical high throughput screening assay to identify inhibitors of TEM-1 serine-beta-lactamase.
# Sequence of Beta-lactamase (Salmonella choleraesuis (strain SC-B67), UniProt Q5J463) (Q5J463 whole entry): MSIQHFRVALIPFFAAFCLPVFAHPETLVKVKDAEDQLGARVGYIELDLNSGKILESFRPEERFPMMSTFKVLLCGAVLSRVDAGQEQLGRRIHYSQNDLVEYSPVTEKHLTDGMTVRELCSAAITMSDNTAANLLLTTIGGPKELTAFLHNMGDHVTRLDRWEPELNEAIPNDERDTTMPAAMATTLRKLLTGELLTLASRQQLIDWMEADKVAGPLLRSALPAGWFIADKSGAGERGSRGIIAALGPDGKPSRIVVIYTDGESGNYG
# Beta-lactamase [4] = target: T2, Beta-lactamase (Pseudomonas aeruginosa, UniProt Q79MP6); assay: IMP-1 metallo-beta-lactamase inhibitors, dose response, selectivity assay for VIM-2 inhibitor project, biochemical, epi-absorbance (AID 1920)
# T2 sequence (Q79MP6 whole entry): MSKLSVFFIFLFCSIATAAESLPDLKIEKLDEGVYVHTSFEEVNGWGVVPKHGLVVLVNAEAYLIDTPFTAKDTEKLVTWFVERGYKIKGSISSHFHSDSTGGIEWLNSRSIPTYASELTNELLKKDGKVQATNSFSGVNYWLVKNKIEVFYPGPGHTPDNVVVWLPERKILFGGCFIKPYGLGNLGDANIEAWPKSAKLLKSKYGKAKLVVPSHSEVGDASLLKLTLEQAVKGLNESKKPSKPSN
# Beta-lactamase [5] = target: T2, Beta-lactamase; assay: […] counterscreen for selective VIM-2 inhibitors: dose response biochemical high throughput screening assay to identify inhibitors of IMP-1 metallo-beta-lactamase.
# [6] = ADAM10 inhibitors, peptide cleavage, dose response, biochemical, QFRET (AID 743254);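 note: ADAM10 enzyme with the DM2 quenched FRET peptide as substrate; EDANS fluorescence gain as the protease cuts the substrate; inhibitor potency against ADAM10 proteolytic activity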
# [7] = target: Disintegrin and metalloproteinase domain-containing protein 17 (Homo sapiens, UniProt P78536); assay: ADAM17 protease inhibitors, dose response, counter-screen for ADAM10 exosite inhibitor project, biochemical, quenched FRET substrate (AID 743253)
# Sequence of Disintegrin and metalloproteinase domain-containing protein 17 (P78536 whole entry, the tested form may be a part): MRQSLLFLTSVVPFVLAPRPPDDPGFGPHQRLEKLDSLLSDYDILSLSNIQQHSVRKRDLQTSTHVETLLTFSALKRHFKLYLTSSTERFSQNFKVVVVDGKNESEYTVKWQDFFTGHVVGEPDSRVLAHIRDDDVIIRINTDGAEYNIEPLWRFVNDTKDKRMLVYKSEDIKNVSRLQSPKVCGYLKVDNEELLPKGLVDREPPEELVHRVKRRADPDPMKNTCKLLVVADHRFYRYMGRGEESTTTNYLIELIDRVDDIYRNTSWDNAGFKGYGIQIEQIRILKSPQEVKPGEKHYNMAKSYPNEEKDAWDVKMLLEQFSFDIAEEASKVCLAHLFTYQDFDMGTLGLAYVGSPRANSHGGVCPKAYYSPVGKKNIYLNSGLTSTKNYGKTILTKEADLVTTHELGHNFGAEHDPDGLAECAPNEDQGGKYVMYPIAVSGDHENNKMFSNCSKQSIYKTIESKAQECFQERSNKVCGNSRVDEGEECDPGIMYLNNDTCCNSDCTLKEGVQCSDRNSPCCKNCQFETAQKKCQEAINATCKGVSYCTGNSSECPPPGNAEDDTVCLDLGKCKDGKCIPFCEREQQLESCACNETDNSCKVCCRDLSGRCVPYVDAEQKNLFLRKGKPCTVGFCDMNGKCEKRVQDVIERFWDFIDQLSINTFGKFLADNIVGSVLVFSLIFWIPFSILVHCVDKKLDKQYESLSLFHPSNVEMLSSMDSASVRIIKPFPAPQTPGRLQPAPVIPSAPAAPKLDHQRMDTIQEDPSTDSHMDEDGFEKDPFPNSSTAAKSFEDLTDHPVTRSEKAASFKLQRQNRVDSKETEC
# [8] = inhibitors of intracellular T. cruzi replication, confirmation, NIH3T3 host cells, beta-gal luminescence (AID 2044); type: functional, cell-based;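 note: intracellular parasites grown in NIH/3T3 mouse fibroblasts as host cells; luminescent beta-galactosidase reporter signal from transgenic T. cruzi replicating inside host cells; inhibitors lower the luminescence signal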
# [9] = cytotoxicity toward NIH3T3 fibroblasts, dose response, counter-screen, cell-based, ATP luminescence, mouse fibroblasts (AID 2010); type: functional;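 note: cells exposed to compound for about 90 hours before reading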
# [10] = target: T3, Methionyl-tRNA synthetase, putative (Trypanosoma brucei brucei, UniProt Q38C91); type: functional, Trypanosoma brucei brucei strain 927/4 GUTat10.1
# T3 sequence (Q38C91 whole entry): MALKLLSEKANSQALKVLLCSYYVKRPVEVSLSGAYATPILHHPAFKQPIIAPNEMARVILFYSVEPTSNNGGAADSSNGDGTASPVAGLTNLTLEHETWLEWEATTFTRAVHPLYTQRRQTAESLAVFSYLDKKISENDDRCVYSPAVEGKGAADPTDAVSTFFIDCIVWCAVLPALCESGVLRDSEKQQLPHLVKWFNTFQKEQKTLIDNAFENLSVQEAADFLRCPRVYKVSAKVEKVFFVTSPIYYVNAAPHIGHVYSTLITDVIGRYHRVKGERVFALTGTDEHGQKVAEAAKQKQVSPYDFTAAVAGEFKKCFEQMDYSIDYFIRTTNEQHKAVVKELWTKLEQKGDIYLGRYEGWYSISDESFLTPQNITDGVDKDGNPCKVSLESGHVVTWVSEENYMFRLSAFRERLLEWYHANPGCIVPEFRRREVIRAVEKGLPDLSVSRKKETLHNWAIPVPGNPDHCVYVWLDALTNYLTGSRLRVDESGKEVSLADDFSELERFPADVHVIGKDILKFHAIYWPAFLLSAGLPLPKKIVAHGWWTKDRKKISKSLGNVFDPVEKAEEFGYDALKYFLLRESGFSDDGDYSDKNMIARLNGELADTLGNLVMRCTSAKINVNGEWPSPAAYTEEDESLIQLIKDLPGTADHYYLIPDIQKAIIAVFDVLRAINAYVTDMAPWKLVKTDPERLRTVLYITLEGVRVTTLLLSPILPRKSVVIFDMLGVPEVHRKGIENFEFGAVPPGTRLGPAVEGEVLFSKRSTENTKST
# [11] = Counterscreen for inhibitors of Trypanosoma brucei methionyl tRNA synthetase (MetRS): Luminescence-based cell-based high throughput dose response assay to identify compounds that are cytotoxic to Jurkat human T lymphocyte cells.; type: functional
# [12] = target: T3, Methionyl-tRNA synthetase, putative; type: functional, Trypanosoma brucei brucei strain 927/4 GUTat10.1; remark: listed apart in the source
# [13] = target: Nuclear receptor subfamily 5 group A member 2 (Homo sapiens, UniProt O00482); type: functional, cell-based;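 note: HEK293T cells transfected with LRH-1 and a StAR promoter luciferase reporter; potency for inhibitors that lower LRH-1 driven reporter light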
# Sequence of Nuclear receptor subfamily 5 group A member 2 (O00482 whole entry): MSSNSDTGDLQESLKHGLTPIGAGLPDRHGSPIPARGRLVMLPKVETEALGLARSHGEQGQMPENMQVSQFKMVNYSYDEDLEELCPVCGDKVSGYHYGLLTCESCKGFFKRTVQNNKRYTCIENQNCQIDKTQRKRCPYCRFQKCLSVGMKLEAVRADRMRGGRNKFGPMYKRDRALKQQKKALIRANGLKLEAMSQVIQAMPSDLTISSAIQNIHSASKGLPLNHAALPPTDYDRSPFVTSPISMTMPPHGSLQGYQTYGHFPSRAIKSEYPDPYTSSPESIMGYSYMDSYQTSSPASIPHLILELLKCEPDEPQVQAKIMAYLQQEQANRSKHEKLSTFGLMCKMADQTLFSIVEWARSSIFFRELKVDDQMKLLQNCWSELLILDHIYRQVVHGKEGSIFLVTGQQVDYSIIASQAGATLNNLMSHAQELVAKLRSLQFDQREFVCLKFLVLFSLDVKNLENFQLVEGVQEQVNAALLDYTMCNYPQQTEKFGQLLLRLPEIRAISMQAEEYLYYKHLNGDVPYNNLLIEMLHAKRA
# Steroidogenic factor 1 = Steroidogenic factor 1 (Homo sapiens, UniProt Q13285); assay: Counterscreen for inverse agonists of the liver receptor homolog-1 (LRH-1; NR5A2): Luminescence-based cell-based high throughput dose response assay to identify inverse agonists of the Steroidogenic Factor 1 Nuclear Receptor (SF1; NR5A1).; type: functional
# Sequence of Steroidogenic factor 1 (Q13285 whole entry): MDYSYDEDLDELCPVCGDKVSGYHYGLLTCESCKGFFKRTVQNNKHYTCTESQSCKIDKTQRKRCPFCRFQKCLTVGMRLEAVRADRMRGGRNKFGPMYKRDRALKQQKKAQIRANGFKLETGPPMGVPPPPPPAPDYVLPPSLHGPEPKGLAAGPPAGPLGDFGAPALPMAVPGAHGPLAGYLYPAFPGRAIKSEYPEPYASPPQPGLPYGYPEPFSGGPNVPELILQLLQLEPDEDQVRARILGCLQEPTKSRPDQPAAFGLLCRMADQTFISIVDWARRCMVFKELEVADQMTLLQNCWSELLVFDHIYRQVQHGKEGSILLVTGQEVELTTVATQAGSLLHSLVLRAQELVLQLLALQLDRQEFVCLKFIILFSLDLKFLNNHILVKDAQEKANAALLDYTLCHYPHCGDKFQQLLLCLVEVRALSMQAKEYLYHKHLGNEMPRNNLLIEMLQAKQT
# [14] = StAR promoter reporter inhibition counter-screen, dose response, counter-screen for LRH-1 inverse agonist project, cell-based, luminescence, luciferase reporter (AID 651969); type: functional
# [15] = Shn3 3'UTR reporter inhibitors, dose response, cell-based, Clone20 osteoblasts, firefly luciferase, cherry-picked (AID 624132); type: functional;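 note: firefly luciferase luminescence from reporter carrying the Shn3 3'UTR in osteoblasts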
# [16] = target: 26S proteasome non-ATPase regulatory subunit 14 (Homo sapiens, UniProt O00487); assay: inhibition of proteasome subunit RPN11 – biochemical, fluorescence polarization, uHTS hits, confirmation (AID 602368); type: functional
# Sequence of 26S proteasome non-ATPase regulatory subunit 14 (O00487 whole entry): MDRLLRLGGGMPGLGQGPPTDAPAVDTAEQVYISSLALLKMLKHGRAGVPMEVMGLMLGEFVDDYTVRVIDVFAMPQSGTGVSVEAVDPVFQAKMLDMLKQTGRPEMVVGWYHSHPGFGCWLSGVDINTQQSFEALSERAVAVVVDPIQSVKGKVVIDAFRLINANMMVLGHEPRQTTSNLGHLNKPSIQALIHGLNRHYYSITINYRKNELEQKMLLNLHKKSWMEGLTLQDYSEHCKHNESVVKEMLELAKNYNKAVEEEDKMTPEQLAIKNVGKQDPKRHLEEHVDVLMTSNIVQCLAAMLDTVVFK
# [17] = HepG2 cell cytotoxicity, dose response, cytotoxicity control for Shn3 inhibitor project, CellTiter-Glo, cherry-picked (AID 624134); type: functional, cell-based
# [18] = control 3'UTR Renilla luciferase suppression, dose response, counter-screen for Shn3 inhibitor project, cell-based, Clone20-Shn3RL, cherry-picked (AID 624133); type: functional
# [19] = target: 72 kDa type IV collagenase (Homo sapiens, UniProt P08253); assay: Dose Response validation of uHTS RPN11 inhibitor hits using a MMP-2 Fluorescence assay.; type: functional
# Sequence of 72 kDa type IV collagenase (P08253 whole entry): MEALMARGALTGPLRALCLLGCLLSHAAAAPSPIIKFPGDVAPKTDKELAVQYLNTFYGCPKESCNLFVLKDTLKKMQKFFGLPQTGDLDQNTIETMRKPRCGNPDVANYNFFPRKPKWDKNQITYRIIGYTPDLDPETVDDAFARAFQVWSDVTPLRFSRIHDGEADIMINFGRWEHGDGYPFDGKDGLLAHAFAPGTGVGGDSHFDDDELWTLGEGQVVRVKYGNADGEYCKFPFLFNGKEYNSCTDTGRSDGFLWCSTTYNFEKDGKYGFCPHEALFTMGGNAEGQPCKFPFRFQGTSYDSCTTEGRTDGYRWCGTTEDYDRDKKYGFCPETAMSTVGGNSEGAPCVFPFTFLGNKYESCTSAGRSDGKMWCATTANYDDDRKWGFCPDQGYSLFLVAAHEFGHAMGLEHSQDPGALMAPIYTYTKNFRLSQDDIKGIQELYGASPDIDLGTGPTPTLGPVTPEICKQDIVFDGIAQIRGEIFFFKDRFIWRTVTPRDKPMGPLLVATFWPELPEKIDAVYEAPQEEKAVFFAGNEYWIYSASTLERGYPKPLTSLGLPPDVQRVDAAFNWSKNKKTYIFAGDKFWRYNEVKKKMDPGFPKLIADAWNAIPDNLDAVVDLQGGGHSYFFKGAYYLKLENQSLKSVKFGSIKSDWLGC
# Prothrombin = Prothrombin (Bos taurus, UniProt P00735); assay: thrombin inhibition, dose response, biochemical, fluorescence polarization, uHTS hits (AID 602369); type: functional
# Insulin-degrading enzyme [20] = target: T4, Insulin-degrading enzyme (Homo sapiens, UniProt P14735); assay: activators of recombinant IDE enzyme, dose response, counter-screen for IDE activator project, biochemical, fluorescence polarization (AID 588681)
# T4 sequence (P14735 whole entry): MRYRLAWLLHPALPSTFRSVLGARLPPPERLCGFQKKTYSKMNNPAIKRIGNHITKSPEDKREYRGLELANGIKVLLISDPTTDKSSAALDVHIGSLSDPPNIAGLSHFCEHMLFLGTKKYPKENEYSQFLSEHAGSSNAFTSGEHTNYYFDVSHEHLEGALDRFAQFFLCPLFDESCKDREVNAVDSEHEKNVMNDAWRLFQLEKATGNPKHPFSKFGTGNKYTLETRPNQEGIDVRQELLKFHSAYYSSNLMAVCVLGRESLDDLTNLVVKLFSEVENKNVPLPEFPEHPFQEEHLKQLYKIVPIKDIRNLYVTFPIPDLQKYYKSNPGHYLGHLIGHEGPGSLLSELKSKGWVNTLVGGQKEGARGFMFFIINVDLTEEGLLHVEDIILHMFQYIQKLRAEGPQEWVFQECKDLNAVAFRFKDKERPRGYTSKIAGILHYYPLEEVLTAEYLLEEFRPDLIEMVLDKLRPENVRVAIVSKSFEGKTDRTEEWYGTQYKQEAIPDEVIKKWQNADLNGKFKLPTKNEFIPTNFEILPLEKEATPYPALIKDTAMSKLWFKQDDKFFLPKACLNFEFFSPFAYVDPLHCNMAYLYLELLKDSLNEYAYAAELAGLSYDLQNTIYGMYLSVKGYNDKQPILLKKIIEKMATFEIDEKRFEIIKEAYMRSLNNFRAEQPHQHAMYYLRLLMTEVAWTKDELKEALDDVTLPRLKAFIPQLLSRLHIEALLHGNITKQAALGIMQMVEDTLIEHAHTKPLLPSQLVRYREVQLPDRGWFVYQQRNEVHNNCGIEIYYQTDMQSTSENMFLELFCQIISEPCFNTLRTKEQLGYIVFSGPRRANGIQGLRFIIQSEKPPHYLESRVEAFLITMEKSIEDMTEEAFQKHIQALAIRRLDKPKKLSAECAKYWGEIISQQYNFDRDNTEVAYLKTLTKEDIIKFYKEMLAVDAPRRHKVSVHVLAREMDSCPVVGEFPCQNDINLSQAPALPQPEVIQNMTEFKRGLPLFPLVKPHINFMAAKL
# Insulin-degrading enzyme [21] = target: T4, Insulin-degrading enzyme; assay: activators of endogenous IDE in HEK cells, dose response, cell-based, fluorescence polarization (AID 588439); type: functional
# HEK293 [22] = assay: HEK cell cytotoxicity by LDH release, dose response, cytotoxicity control for IDE activator project, fluorescence, HEK cells (AID 588440); type: functional, cell-based; details: Homo sapiens;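 note: cytotoxicity by LDH release measuring loss of membrane integrity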
# HEK293 [23] = assay: optical interference in Abeta FP readout, dose response, artefact control for IDE activator project, biochemical, fluorescence polarization (AID 588442); type: functional, cell-based; details: Homo sapiens
# Albumin = Albumin (Bos taurus, UniProt P02769); assay: Counterscreen for inhibitors of T-cell receptor (TCR)-CD3 interaction: Fluorescence-based biochemical high throughput dose response assay to identify inhibitors of T-cell receptor (TCR)-CD3 interaction using a TAMRA-labeled BSA probe.; type: functional
# Sequence of Albumin (P02769 whole entry): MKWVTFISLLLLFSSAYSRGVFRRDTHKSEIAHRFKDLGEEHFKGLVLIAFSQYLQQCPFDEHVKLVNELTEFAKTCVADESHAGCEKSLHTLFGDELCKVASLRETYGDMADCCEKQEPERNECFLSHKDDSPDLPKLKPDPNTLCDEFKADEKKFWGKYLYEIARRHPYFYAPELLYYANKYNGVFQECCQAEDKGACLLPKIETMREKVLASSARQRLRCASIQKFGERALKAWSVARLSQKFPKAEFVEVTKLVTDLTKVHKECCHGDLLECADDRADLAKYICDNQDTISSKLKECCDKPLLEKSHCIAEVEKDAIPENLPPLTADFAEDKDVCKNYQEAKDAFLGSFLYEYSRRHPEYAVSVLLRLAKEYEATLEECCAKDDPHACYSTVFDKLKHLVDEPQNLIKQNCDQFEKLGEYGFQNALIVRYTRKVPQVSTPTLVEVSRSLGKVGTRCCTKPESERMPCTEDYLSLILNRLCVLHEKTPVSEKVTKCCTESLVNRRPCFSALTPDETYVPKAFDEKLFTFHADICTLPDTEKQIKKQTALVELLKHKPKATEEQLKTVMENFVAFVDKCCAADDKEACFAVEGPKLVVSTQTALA
# [24] = target: Dual specificity tyrosine-phosphorylation-regulated kinase 1A (Rattus norvegicus, UniProt Q63470); type: biochemical, Homo sapiens
structure (smiles),measurement,setting,value
Cc1cccc(C)c1-n1nnnc1-c1nc2cc3ccccc3cc2nc1O,IC50,[1],7.1 µM (active)
same,IC50,[2],1.93 µM (active)
COc1ccc(-c2cc(C(F)(F)F)nc(N3CCN(C)CC3)n2)cc1,IC50,Beta-lactamase [3],> 59.6 µM (inactive)
same,IC50,Beta-lactamase [4],> 59.6 µM (inactive)
same,IC50,Beta-lactamase [5],> 59.6 µM (inactive)
COC(=O)c1ccc(-c2cc3onc(-c4ccccc4)c3c(=O)n2C)cc1,IC50,[6],> 69.5 µM (inactive)
same,IC50,[7],> 69.5 µM (inactive)
Clc1cccc(CNc2nc(-c3cccnc3)nc3ccccc23)c1,EC50,[8],0.952 µM (active)
same,EC50,[9],> 60 µM (not active)
same,IC50,[10],32 µM (inactive)
same,IC50,[11],41.9 µM (inactive)
same,IC50,[12],16.4 µM (inactive)
O=C(CSc1nnc(CNC(=O)c2c(F)cccc2F)o1)Nc1ccc2c(c1)OCCO2,IC50,[13],35.9 µM (inactive)
same,IC50,Steroidogenic factor 1,31 µM (inactive)
same,IC50,[14],35.9 µM (inactive)
CCc1ccc(NC(=O)C2CCN(S(=O)(=O)c3ccc4c(c3)NC(=O)C(C)S4)CC2)cc1 (stereo unspecified),AC50,[15],7.08 µM (active)
same,IC50,[16],31.8 µM (active)
same,AC50,[17],6.54 µM (active)
same,AC50,[18],6 µM (active)
same,IC50,[19],> 100 µM (inactive)
same,IC50,Prothrombin,42 µM (active)
COC(=O)c1ccc(-c2nc(O)c(C)s2)cc1,IC50,[1],7.31 µM (active)
same,IC50,[2],8.08 µM (active)
C[C@@H]1CCCCO[C@@H](CN(C)C(=O)Nc2ccc3c(c2)OCO3)[C@@H](C)CN([C@H](C)CO)C(=O)c2cc(NC(=O)Nc3ccc(C(F)(F)F)cc3)ccc2O1,IC50,[6],> 69.5 µM (inactive)
same,IC50,[7],> 69.5 µM (inactive)
CCCc1cc(=O)oc2cc(OCC(=O)NCc3ccccn3)ccc12,IC50,[13],35.9 µM (inactive)
same,IC50,Steroidogenic factor 1,1.97 µM (active)
same,IC50,[14],35.9 µM (inactive)
O=C(CN1CCS/C1=N/Cc1ccccc1)c1ccc(Cl)c(Cl)c1,IC50,[10],3.92 µM (active)
same,IC50,[11],48.2 µM (inactive)
same,IC50,[12],2.67 µM (active)
O=C1C=C(c2cccc3c2sc2ccccc23)C[C@@H](c2ccc(Cl)cc2)C1,EC50,Insulin-degrading enzyme [20],> 54.7 µM (inactive)
same,EC50,Insulin-degrading enzyme [21],> 54.7 µM (inactive)
same,IC50,HEK293 [22],> 89.2 µM (inactive)
same,EC50,HEK293 [23],> 54.7 µM (inactive)
O=C(CSc1nc2ccccc2s1)N/N=C/c1cc([N+](=O)[O-])ccc1O,IC50,Albumin,> 94.1 µM (inactive)
Cc1cc(NC(=O)CSc2nc3ccccc3cc2C#N)no1,IC50,[1],19.3 µM (active)
same,IC50,[2],11 µM (active)
CN1CCN(c2ccc(S(=O)(=O)N3CCCCC3)cc2NC(=O)COc2ccc([N+](=O)[O-])cc2)CC1,EC50,[8],0.353 µM (active)
same,EC50,[9],> 30 µM (not active)
same,IC50,[13],35.9 µM (inactive)
same,IC50,Steroidogenic factor 1,1.48 µM (active)
same,IC50,[14],35.9 µM (inactive)
COc1ccc(C(=O)NNC(=S)NC(=O)c2cccnc2)cc1,IC50,Albumin,> 94.1 µM (inactive)
CC1CCCC(C)N1C(=O)CSc1nnc(NC(=O)c2cccs2)s1 (stereo unspecified),IC50,Beta-lactamase [3],> 59.6 µM (inactive)
same,IC50,Beta-lactamase [4],> 59.6 µM (inactive)
same,IC50,Beta-lactamase [5],> 59.6 µM (inactive)
O=C(O)c1[nH]c2ccc(Cl)cc2c1CCN1C(=O)c2ccccc2C1=O,IC50,Beta-lactamase [3],> 59.6 µM (inactive)
same,IC50,Beta-lactamase [4],> 59.6 µM (inactive)
same,IC50,Beta-lactamase [5],> 59.6 µM (inactive)
same,AC50,[24],13.6 µM (active)
